Where a name gives a salt, the structure may show the parent alone.

This assay deals with T1, GSK-3 (Homo sapiens, UniProt P49841).
T1 construct: made in house
The assay can be described thus: GSK-3 inhibition, cell-free 33P-ATP peptide substrate SPA assay. The class given is biochemical. The settings on record: read-out: inhibitory activity, expressed as IC50's, against GSK-3. The procedure:
The specific activities of the compounds of formula (I) in inhibiting GSK-3 can be determined in both cell-free and cell-based assays, both of which have been previously described in the relevant art. See, for example, U.S. Pat. Nos. 6,417,185 and 6,489,344, the disclosures of which are incorporated herein by reference in their entirety.
A cell-free assay can be generally carried out by incubating GSK-3 with a peptide substrate, radiolabeled ATP (e.g., for example, γ^33P- or γ^32P-ATP, both of which are available from Amersham; Arlington Heights, Ill.), magnesium ions, and the compound to be assayed. […] The amount of γ^33P or γ^32P remaining in each well after washing is then quantified to determine the amount of radiolabeled phosphate incorporated into the peptide substrate. […]
Another example of a GSK-3 assay, similar to the one described hereinabove, is as follows: enzyme activities are assayed as the incorporation of ^33P from gamma phosphate of ^33P-ATP (Amersham; Arlington Heights, Ill.; catalog #AH-9968) into biotinylated peptide substrate PKTP-KKAKKL. […] The final concentration of ATP is 0.5 μM (final specific radioactivity of 4 μCi/nmol), and the final concentration of substrate is 0.75 μM. […] Radioactivity associated with the beads is then quantified by scintillation counting. […]

T1 sequence (P49841 whole entry): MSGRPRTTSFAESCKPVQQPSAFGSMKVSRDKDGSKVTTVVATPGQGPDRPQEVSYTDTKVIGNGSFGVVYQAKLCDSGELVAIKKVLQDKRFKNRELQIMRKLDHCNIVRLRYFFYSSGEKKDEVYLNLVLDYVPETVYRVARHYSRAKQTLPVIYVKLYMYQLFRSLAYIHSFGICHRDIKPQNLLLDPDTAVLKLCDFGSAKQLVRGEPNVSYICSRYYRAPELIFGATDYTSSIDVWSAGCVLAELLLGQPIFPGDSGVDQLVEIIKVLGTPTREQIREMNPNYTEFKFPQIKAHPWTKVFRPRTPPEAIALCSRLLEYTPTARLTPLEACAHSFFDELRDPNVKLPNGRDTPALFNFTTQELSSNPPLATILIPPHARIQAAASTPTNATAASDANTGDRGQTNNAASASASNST

What is called IC50 is the midpoint of a concentration-inhibition curve. For the molecule `O=c1cc(-c2ccccc2)c2c(C3CCC3)[nH]nc2[nH]1` [Example 5, 3-Cyclobutyl-4-phenyl-2,7-dihydro-pyrazolo[3,4-b]yridin-6-one hydrochloride], the IC50 was determined as 36 nM.

For the origin of these results see patent US7300943B2, “GSK-3 inhibitors” (Pfizer Inc., priority 2003, dated 2007).
